For 14 compounds, melting point and CC50 results are on record in US9890133B2 (priority 2011, dated 2018).

One data set is described as follows: in vitro. The note with it: human, Picorana CC50.

Molecules are shown by their SMILES. Values after ≈ are worked out from the molar mass of the structure shown.

With `O=C1c2ccccc2C2(O)Oc3cc4ccccc4cc3C12O` (stereo not shown) [Example 15, 4b,11b-Dihydroxy-4bH-indeno[1,2-b]naphtho[2,3-d]furan-12(11 bH)-one], the melting point was 220 to 221 °C. The CC50 in “in vitro” worked out at 8.57 µg/mL (≈ 28.2 µM).
For `O=C1c2ccccc2C2(O)Oc3c(ccc4ccccc34)C12O` (stereo not shown) [Example 16, 6b,11b-Dihydroxy-6bH-indeno[1,2-b]naphtho[2,1-d]furan-7(11 bH)-one] the same measures were 216 to 218 °C and 7.82 µg/mL (≈ 25.7 µM).
Consider `CCCc1ccc2c(c1)C1(O)C(=O)c3ccccc3C1(O)O2` (stereo not shown) [Example 17, 4b,9b-Dihydroxy-8-propyl-4bH-benzo[d]indeno[1,2-b]furan-10(9bH)-one], for which the melting point fell in the range of 126 to 127 °C. Moreover, the CC50 in “in vitro” is 7.85 µg/mL (≈ 26.5 µM).
As to `CCc1ccc2c(c1)C1(O)C(=O)c3ccccc3C1(O)O2` (stereo not shown) [Example 18, 8-Ethyl-4b,9b-dihydroxy-4bH-benzo[d]indeno[1,2-b]furan-10(9bH)-one], the melting point was 157 to 159 °C. In the data set “in vitro”, this compound came in with a CC50 of 37.5 µg/mL (≈ 133 µM).
For `CCC(C)c1ccc2c(c1)C1(O)C(=O)c3ccccc3C1(O)O2` (stereo not shown) [Example 19, 8-sec-Butyl-4b,9b-dihydroxy-4bH-benzo[d]indeno[1,2-b]furan-10(9bH)-one], the melting point lay in the range of 134 to 136 °C. Further, the CC50 in the data set “in vitro” is 8.34 µg/mL (≈ 26.9 µM).
For `CC(C)(C)c1ccc2c(c1)C1(O)C(=O)c3ccccc3C1(O)O2` (stereo not shown) [Example 20, 8-tert-Butyl-4b,9b-dihydroxy-4bH-benzo[d]indeno[1,2-b]furan-10(9bH)-one] the same measures were 187 to 188 °C and 7.93 µg/mL (≈ 25.6 µM).
For `CC(C)(C)c1cccc2c1OC1(O)c3ccccc3C(=O)C21O` (stereo not shown) [Example 21, 6-tert-Butyl-4b,9b-dihydroxy-4bH-benzo[d]indeno[1,2-b]furan-10(9bH)-one], in that order: 148 to 152 °C and 32.1 µg/mL (≈ 103 µM).
`Cc1cc2c(c(C)c1C)C1(O)C(=O)c3ccccc3C1(O)O2` (stereo not shown) [Example 22, 4b,9b-Dihydroxy-7,8,9-trimethyl-4bH-benzo[d]indeno[1,2-b]furan-10(9bH)-one] showed a melting point of 212 to 214 °C. In the data set “in vitro”, this compound showed a CC50 of 8.01 µg/mL (≈ 27 µM).
For `CCC(C)(C)c1ccc2c(c1)C1(O)C(=O)c3ccccc3C1(O)O2` (stereo not shown) [Example 23, 4b,9b-Dihydroxy-8-tert-pentyl-4bH-benzo[d]indeno[1,2-b]furan-10(9bH)-one] the same measures were 175 to 176 °C and 9.3 µg/mL (≈ 28.7 µM).
For `CC(C)(C)c1cc(C(C)(C)C)c2c(c1)C1(O)C(=O)c3ccccc3C1(O)O2` (stereo not shown) [Example 24, 6,8-di-tert-Butyl-4b,9b-dihydroxy-4bH-benzo[d]indeno[1,2-b]furan-10(9bH)-one] the same measures were 200 to 203 °C and 8.8 µg/mL (≈ 24 µM).
For `CC(=O)OC12Oc3c(C(C)(C)C)cc(C(C)(C)C)cc3C1(OC(C)=O)C(=O)c1ccccc12` (stereo not shown) [Example 25, 6,8-di-tert-Butyl-10-oxo-9b,10-dihydro-4bH-benzo[d]indeno[1,2-b]furane-4b,9b-diyl diacetate] the same measures were 242 to 247 °C and above 50 µg/mL.
`CCCCCCCCCc1ccc2c(c1)C1(O)C(=O)c3ccccc3C1(O)O2` (stereo not shown) [Example 26, 4b,9b-Dihydroxy-8-nonyl-4bH-benzo[d]indeno[1,2-b]furan-10(9bH)-one] showed a melting point of 108 to 110 °C. This compound came in with a CC50 in “in vitro” below 4 µg/mL.
For `CCCCCCCCCCCCCCCc1ccc2c(c1)C1(O)C(=O)c3ccccc3C1(O)O2` (stereo not shown) [Example 27, 4b,9b-Dihydroxy-8-pentadecyl-4bH-benzo[d]indeno[1,2-b]furan-10(9bH)-one], in that order: 105 to 110 °C and 43.9 µg/mL (≈ 94.5 µM).
For `CCC(C)(C)c1cc(C(C)(C)CC)c2c(c1)C1(O)C(=O)c3ccccc3C1(O)O2` (stereo not shown) [Example 28, 6,8-Bis-(1,1-dimethyl-propyl)-4b,9b-dihydroxy-4b,9b-dihydro-5-oxa-indeno[2,1-a]inden-10-one], in that order: 195 to 222 °C and 9.2 µg/mL (≈ 23.3 µM).
